Among the data in patent US20060223792A1, “Phenyl and pyridyl LTA4H modulators” (priority 2005, published 2006) are IC50 and inhibition in vivo values, retold here.

The structures appear in SMILES notation. Where two headings read alike, the source gives them in different places.

In general, IC50 refers to the concentration that inhibits the measured activity by half.

The subject of test [1] is LTB4 production by calcium ionophore-stimulated murine blood. Nature of the test: LTB4 production by calcium ionophore-stimulated murine blood for LTA4H inhibitor activity. It counts as cell-based, CD-1 mice. The conditions noted are these: diluted CD-1 mouse whole blood, calcium ionophore A23187, LTB4 by enzyme-linked immunoassay. The procedure:
LTB4 Production by Calcium Ionophore-Stimulated Murine Blood for LTA4H Inhibitor Activity
CD-1 mice were sacrificed, and blood was collected in heparin-containing syringes by cardiac puncture. The blood was diluted 1:15 with RPMI-1640 medium, and 200-μL aliquots of the diluted blood were added to wells of a 96-well microtiter plate. LTA4H inhibitor test compounds were prepared at different concentrations in RPMI-1640 medium containing […], and 20 μL of each test solution was added to a well containing diluted whole blood (final DMSO concentration of 0.1%). After the microtiter plate contents were incubated for 15 min at 37° C. in a humidified incubator, calcium ionophore A23187 (Sigma Chemical Co., St. Louis, Mo.) was added to each sample well (final concentration=20 ng/mL). The incubation was continued under the same conditions for an additional 10 min to allow LTB4 formation. The reaction was terminated by centrifugation (833×g, 10 min at 4° C.), and supernatants were analyzed for LTB4 by a commercially available enzyme-linked immunoassay (Cayman Chemical Co.) according to the manufacturer's instructions. Positive controls, under essentially identical conditions but without addition of an inhibitor compound, and negative unstimulated controls, containing all assay components except calcium ionophore, were routinely run in each experiment. IC50 values were determined by fitting the activity data at different compound concentrations to a 4-parameter equation using the Grafit program (Erithacus software).

Test [2] has as its system neutrophil influx (myeloperoxidase, MPO). Nature of the test: Murine arachidonic acid-induced inflammation model: neutrophil influx in ear (myeloperoxidase activity). It is filed as in vivo, female Balb/c mice. The conditions noted are these: Mus musculus, read-out: % Inh. MPO. The procedure:
Murine Arachidonic Acid-Induced Inflammation Model
LTA4H inhibitor compounds of the present invention were dissolved in 20% cyclodextran/H2O at a concentration of 3 mg/mL. The solutions were administered by oral gavage to female Balb/c mice weighing approximately 20 grams each (0.2 mL per mouse, 30 mg of LTA4H inhibitor compound per kg). Sixty minutes after being administered an LTA4 inhibitor, each mouse received topical application of 20 μL of arachidonic acid (100 mg/mL in acetone) to the left ear and 20 μL of acetone only to the right ear. After 3 h, the mice were sacrificed, blood was withdrawn in heparinized syringes, and 8 mm ear biopsies were taken. Ear biopsies were weighed to determine edema and then frozen at −80° C. until needed for determination of neutrophil influx.
Neutrophil influx was quantified by measuring the activity of myeloperoxidase (MPO), a neutrophil-specific enzyme. The ear biopsies were homogenized in 0.5 mL extraction buffer (0.3 M sucrose, 0.22% (w/v) hexadecyl trimethyl ammonium bromide (CTAB), and 2.5 mM citrate prepared from 0.5 M citrate stock solution (pH 5.0)). Debris was removed by centrifugation at 14000×g for 10 min. Aliquots of 10 μL of the resulting supernatant were added to wells of a microtiter plate, along with 90-μL aliquots of dilution buffer (10 mM citrate, 0.22% CTAB), followed by addition of 20 μL TMB liquid substrate system (Sigma Chemical Co.) to each sample well. The microtiter plate contents were held at rt for 1 h. The reaction was stopped by addition of 100 μL 1 M H2SO4 to each sample well, and the myeloperoxidase activity in each sample was determined from the absorbance at 405 nm. The background value from the right ear, treated only with acetone, was subtracted from that for the left ear, treated with arachidonic acid in acetone, for each animal. The percent inhibition of neutrophil influx (% lnh. MPO) by compounds of the invention was determined by comparison to animals treated identically, except that the solution administered by oral gavage was devoid of inhibitor compound.

The mark [3] stands for this setting: 30 mg/kg oral gavage 60 min before topical arachidonic acid to ear, female Balb/c mice, ear biopsies after 3 h.

For `O=C(O)C1CCN(Cc2ccc(OCCc3ccccc3)cc2)CC1` [Example 96, 1-(4-Phenethyloxy-benzyl)-piperidine-4-carboxylic acid], in test [1], the IC50 amounted to 0.007 µM. Also, the inhibition in vivo at 30 mg/kg in test [2] (setting [3]) worked out at 95%.
For `O=C(O)C1CCN(CCOc2ccc(OCCCc3ccccc3)cc2)CC1` [Example 117, 1-{2-[4-(3-Phenyl-propoxy)-phenoxy]-ethyl}-piperidine-4-carboxylic acid], in that order: 0.079 µM and 62%.
The corresponding values for `O=C1CCCN1C1CCN(Cc2ccc(OCCc3ccccc3)cc2)CC1` [Example 99, 1-[1-(4-Phenethyloxy-benzyl)-piperidin-4-yl]-pyrrolidin-2-one] are 0.123 µM and 17%.
`O=C(O)C1CCN(Cc2ccc(OCCCc3ccccc3)cc2)CC1` [Example 112, 1-[4-(3-Phenyl-propoxy)-benzyl]-piperidine-4-carboxylic acid]: the IC50 in test [1] is 0.01 µM. Besides, the inhibition in vivo at 30 mg/kg in test [2] (setting [3]) is 79%.
In the case of `CN(C(=O)Oc1ccc(OCCN2CCC(O)(c3ccccc3)CC2)cc1)c1ccccc1` [Example 40, Methyl-phenyl-carbamic acid 4-[2-(4-hydroxy-4-phenyl-piperidin-1-yl)-ethoxy]-phenyl ester], the IC50 in test [1] came out at 0.15 µM. In test [2] (po, 3 h), the inhibition in vivo at 30 mg/kg came to 75%.
With `O=C(O)C1CCN(CCc2ccc(OCCc3ccccc3)cc2)CC1` [Example 81, 1-[2-(4-Phenethyloxy-phenyl)-ethyl]-piperidine-4-carboxylic acid], the concentration for half-maximal inhibition (IC50) in test [1] worked out at 0.181 µM. Besides, the inhibition in vivo at 30 mg/kg in test [2] (setting [3]) amounted to 64%.
